Laboratory results from ChEMBL document CHEMBL1155609, “New cytotoxic sterol glycosides from the octocoral Carijoa (Telesto) riisei” (2000).
In brackets after ≈: the same amount, converted by molar mass.

System: HCT-116
Experiment: Cytotoxicity against human HCT116 cells
Format: functional
Conditions: read-out: ED50 (the source's name)

Compound	EC50 [µg/mL]
CC(=O)OCC(C)CCC[C@@H](C)[C@H]1CC[C@H]2[C@@H]3C[C@@H](O)[C@@]4(O)C[C@@H](O[C@@H]5OC[C@@H](O)[C@@H](OC(C)=O)[C@@H]5O)CC[C@]4(C)[C@H]3CC[C@]12C (some centres not stated) [RIISEIN A]	2 (≈ 3.06 µM)
CC(=O)OCC(C)CCC[C@@H](C)[C@H]1CC[C@H]2[C@@H]3C[C@@H](O)[C@@]4(O)C[C@@H](O[C@@H]5OC[C@@H](OC(C)=O)[C@@H](O)[C@@H]5O)CC[C@]4(C)[C@H]3CC[C@]12C (some centres not stated) [RIISEIN B]	2 (≈ 3.06 µM)
